# Source: publication PMC6958329, “New ^55Co-labeled Albumin-Binding Folate Derivatives as Potential PET Agents for Folate Receptor Imaging” (Pharmaceuticals, 2019)
# “And” between values parts separate entries of the source, which are not always exact repeats. Identical values can stand only once.
# Tested on: KB tumor bearing mice
# Assay: In vivo biodistribution in KB tumor bearing mice
# Settings: for Biodistribution, Tumor: KB tumor; for Biodistribution, Tumor / Biodistribution, Blood / Biodistribution, Bone / Biodistribution, Brain / Biodistribution, Fat / Biodistribution, Heart / Biodistribution, Intestine / Biodistribution, Kidney / Biodistribution, Liver / Biodistribution, Lungs / Biodistribution, Muscle / Biodistribution, Pancreas / Biodistribution, Skin / Biodistribution, Spleen / Biodistribution, Stomach: n = 4
# Protocol: The in vivo behavior of each ^55Co-labeled folate was evaluated in KB-tumor bearing mice via biodistribution studies and PET/CT imaging. The biodistribution data are presented in Table 3 and Table 4, and are reported as the percent of injected activity per gram of tissue (% IA/g). Statistically significant differences in renal uptake between the two ^55Co-labeled compounds were observed. At 4 h post-injection, the radiofolates had uptake values in the kidneys of 36% ± 7% IA/g for [^55Co]Co-cm10 and 53% ± 12% IA/g for [^55Co]Co-rf42. […] Lower renal uptake for [^55Co]Co-cm10 may in part be due to slightly higher lipophilicity (supported by its larger molecular weight and a longer HPLC-retention time) in comparison to [^55Co]Co-rf42. […] Despite the differences in blood retention, tumor uptake for both radiofolates was similar with values of 17% ± 2% IA/g for [^55Co]Co-cm10 and 17% ± 4% IA/g for [^55Co]Co-rf42 at 4 h post-injection. […] The PET/CT images (presented as maximal intensity projections) confirm the biodistribution findings, highlighting the kidneys and tumors as the tissues with the highest activity uptake (Figure 5).
# All animal studies were performed using a protocol approved by the Institutional Animal Care and Use Committee at the University of Alabama at Birmingham and were in compliance with national animal welfare policies and guidelines. Female athymic nude mice (Charles River, Wilmington, MA, USA), age 5 weeks, were implanted with KB cells via subcutaneous injection of 5 × 10^6 cells in 100 μL of PBS in the right shoulder. Tumors were allowed to grow for 12 days, during which time mice were fed Teklad Folic Acid Deficient Diet (Envigo, Huntingdon, United Kingdom).
# Biodistribution and imaging studies for [^55Co]Co-cm10 and [^55Co]Co-rf42 were performed at 4 h and 24 h post-injection on groups of four mice. An additional cohort of mice was co-injected with a blocking dose of folic acid (100 μg), and biodistribution was performed at 4 h post-injection. At 2 h, mice were induced using 3% isoflurane and a 50 μL blood sample was taken retro-orbitally to monitor blood activity at an early time point.
# The radiofolates were prepared as described with final molar activities of 835.5 MBq/μmol (22.6 mCi/μmol) for [^55Co]Co-cm10 and 957.6 MBq/μmol (25.9 mCi/μmol) for [^55Co]Co-rf42 in 60 μL reaction volume. Injections (100 µL) were prepared by dilution of the radiofolates in sterile saline (pH = 7). The final [^55Co]Co-cm10 injection contained 1,924 kBq (52 μCi) and 2.3 nmol cm10 and the final [^55Co]Co-rf42 injection contained 2,479 kBq […] and 2.4 nmol rf42. Blocking doses contained an additional 100 µg of folic acid and were prepared by diluting the radiofolates with 1 μg/μL folic acid in sterile saline (pH adjusted to 7). Mice were euthanized humanely by cervical dislocation following anaesthetization with 3% isoflurane, and their organs were collected, weighed and counted using an automatic gamma counter.
# [1] = 4 h, co-administration of 100 µg folic acid blocking dose
structure (smiles),measurement,setting,value
Nc1nc2ncc(CNc3ccc(C(=O)N[C@@H](CCC(=O)NC(CCCCNC(=O)CN4CCN(CC(=O)O)CCN(CC(=O)O)CCN(CC(=O)O)CC4)C(=O)NC(CCCCNC(=O)CCCc4ccc(I)cc4)C(=O)O)C(=O)O)cc3)nc2c(=O)[nH]1.[55Co] (stereo partly shown) [[^55Co]Co-cm10],"Biodistribution, Tumor",[1],8 ± 4 % IA/g
same,"Biodistribution, Blood",[1],17 ± 3 % IA/g
same,"Biodistribution, Bone",[1],2.2 ± 0.8 % IA/g
same,"Biodistribution, Brain",[1],0.6 ± 0.2 % IA/g
same,"Biodistribution, Fat",[1],4 ± 1 % IA/g
same,"Biodistribution, Heart",[1],4.2 ± 0.7 % IA/g
same,"Biodistribution, Intestine",[1],2.3 ± 0.4 % IA/g
same,"Biodistribution, Kidney",[1],16 ± 4 % IA/g
same,"Biodistribution, Liver",[1],3.5 ± 0.5 % IA/g
same,"Biodistribution, Lungs",[1],7 ± 3 % IA/g
same,"Biodistribution, Muscle",[1],2.1 ± 0.7 % IA/g
same,"Biodistribution, Pancreas",[1],2.4 ± 0.7 % IA/g
same,"Biodistribution, Skin",[1],5 ± 1 % IA/g
same,"Biodistribution, Spleen",[1],2.2 ± 0.4 % IA/g
same,"Biodistribution, Stomach",[1],1.5 ± 0.1 % IA/g
same,"Biodistribution, Blood",4 h post-injection,14 % IA/g and 13.8 ± 0.8 % IA/g
same,"Biodistribution, Bone",4 h post-injection,1.8 ± 0.6 % IA/g
same,"Biodistribution, Brain",4 h post-injection,0.8 ± 0.1 % IA/g
same,"Biodistribution, Fat",4 h post-injection,5 ± 1 % IA/g
same,"Biodistribution, Heart",4 h post-injection,4.7 ± 0.6 % IA/g
same,"Biodistribution, Intestine",4 h post-injection,1.9 ± 0.3 % IA/g
same,"Biodistribution, Liver",4 h post-injection,3.7 ± 0.6 % IA/g
same,"Biodistribution, Lungs",4 h post-injection,5.4 ± 0.6 % IA/g
same,"Biodistribution, Muscle",4 h post-injection,2.4 ± 0.9 % IA/g
same,"Biodistribution, Pancreas",4 h post-injection,2.4 ± 0.7 % IA/g
same,"Biodistribution, Skin",4 h post-injection,6 ± 2 % IA/g
same,"Biodistribution, Spleen",4 h post-injection,2.0 ± 0.4 % IA/g
same,"Biodistribution, Stomach",4 h post-injection,0.8 ± 0.2 % IA/g
same,"Biodistribution, Blood",24 h post-injection,2.6 ± 0.3 % IA/g
same,"Biodistribution, Bone",24 h post-injection,0.8 ± 0.2 % IA/g
same,"Biodistribution, Brain",24 h post-injection,0.45 ± 0.08 % IA/g
same,"Biodistribution, Fat",24 h post-injection,3 ± 2 % IA/g
same,"Biodistribution, Heart",24 h post-injection,1.7 ± 0.2 % IA/g
same,"Biodistribution, Intestine",24 h post-injection,0.92 ± 0.08 % IA/g
same,"Biodistribution, Kidney",24 h post-injection,30 ± 2 % IA/g
same,"Biodistribution, Liver",24 h post-injection,1.9 ± 0.3 % IA/g
same,"Biodistribution, Lungs",24 h post-injection,1.9 ± 0.3 % IA/g
same,"Biodistribution, Muscle",24 h post-injection,1.3 ± 0.3 % IA/g
same,"Biodistribution, Pancreas",24 h post-injection,1.4 ± 0.2 % IA/g
same,"Biodistribution, Skin",24 h post-injection,7 ± 3 % IA/g
same,"Biodistribution, Spleen",24 h post-injection,1.0 ± 0.1 % IA/g
same,"Biodistribution, Stomach",24 h post-injection,0.34 ± 0.09 % IA/g
Nc1nc2ncc(CNc3ccc(C(=O)N[C@@H](CCC(=O)NC(CCCCNC(=O)CCC(C(=O)O)N4CCN(CC(=O)O)CCN(CC(=O)O)CC4)C(=O)NC(CCCCNC(=O)CCCc4ccc(I)cc4)C(=O)O)C(=O)O)cc3)nc2c(=O)[nH]1.[55Co] (stereo partly shown) [[^55Co]Co-rf42],"Biodistribution, Tumor",[1],7 ± 2 % IA/g
same,"Biodistribution, Blood",[1],15 ± 2 % IA/g
same,"Biodistribution, Bone",[1],1.7 ± 0.5 % IA/g
same,"Biodistribution, Brain",[1],0.5 ± 0.1 % IA/g
same,"Biodistribution, Fat",[1],2.7 ± 0.6 % IA/g
same,"Biodistribution, Heart",[1],4 ± 1 % IA/g
same,"Biodistribution, Intestine",[1],2.2 ± 0.3 % IA/g
same,"Biodistribution, Kidney",[1],12 ± 4 % IA/g
same,"Biodistribution, Liver",[1],4 ± 1 % IA/g
same,"Biodistribution, Lungs",[1],5.6 ± 0.3 % IA/g
same,"Biodistribution, Muscle",[1],1.5 ± 0.3 % IA/g
same,"Biodistribution, Pancreas",[1],2.2 ± 0.2 % IA/g
same,"Biodistribution, Skin",[1],3.5 ± 0.8 % IA/g
same,"Biodistribution, Spleen",[1],2.1 ± 0.3 % IA/g
same,"Biodistribution, Stomach",[1],1.1 ± 0.5 % IA/g
same,"Biodistribution, Blood",4 h post-injection,8 % IA/g and 8 ± 3 % IA/g
same,"Biodistribution, Bone",4 h post-injection,1.3 ± 0.2 % IA/g
same,"Biodistribution, Brain",4 h post-injection,0.7 ± 0.1 % IA/g
same,"Biodistribution, Fat",4 h post-injection,3.2 ± 0.9 % IA/g
same,"Biodistribution, Heart",4 h post-injection,2.9 ± 0.4 % IA/g
same,"Biodistribution, Intestine",4 h post-injection,2.2 ± 0.5 % IA/g
same,"Biodistribution, Liver",4 h post-injection,3.8 ± 0.6 % IA/g
same,"Biodistribution, Lungs",4 h post-injection,4 ± 1 % IA/g
same,"Biodistribution, Muscle",4 h post-injection,1.6 ± 0.4 % IA/g
same,"Biodistribution, Pancreas",4 h post-injection,2.4 ± 0.5 % IA/g
same,"Biodistribution, Skin",4 h post-injection,8 ± 1 % IA/g
same,"Biodistribution, Spleen",4 h post-injection,1.5 ± 0.3 % IA/g
same,"Biodistribution, Stomach",4 h post-injection,0.8 ± 0.4 % IA/g
same,"Biodistribution, Blood",24 h post-injection,1.0 ± 0.4 % IA/g
same,"Biodistribution, Bone",24 h post-injection,0.6 ± 0.2 % IA/g
same,"Biodistribution, Brain",24 h post-injection,0.4 ± 0.1 % IA/g
same,"Biodistribution, Fat",24 h post-injection,2.7 ± 0.2 % IA/g
same,"Biodistribution, Heart",24 h post-injection,2.0 ± 0.4 % IA/g
same,"Biodistribution, Intestine",24 h post-injection,0.8 ± 0.2 % IA/g
same,"Biodistribution, Kidney",24 h post-injection,46 ± 14 % IA/g
same,"Biodistribution, Liver",24 h post-injection,2.9 ± 0.5 % IA/g
same,"Biodistribution, Lungs",24 h post-injection,1.5 ± 0.4 % IA/g
same,"Biodistribution, Muscle",24 h post-injection,1.2 ± 0.6 % IA/g
same,"Biodistribution, Pancreas",24 h post-injection,1.9 ± 0.3 % IA/g
same,"Biodistribution, Skin",24 h post-injection,6 ± 2 % IA/g
same,"Biodistribution, Spleen",24 h post-injection,0.6 ± 0.2 % IA/g
same,"Biodistribution, Stomach",24 h post-injection,0.5 ± 0.2 % IA/g
same,tumor-to-kidney ratio,"compared with [^64Cu]Cu-rf42 and [^68Ga]Ga-rf42, Figure 6",lowest
